“And” between values parts separate entries of the source, which are not always exact repeats. Equal entries are not always repeated. Inconclusive results and toxic doses are left out. No stated cut-off is given here; in the data, active means T/C of 150% or more; inactive means T/C below 125%.
System: L1210 leukemia ip in BDF1 mice, survival T/C
Assay: NCI In Vivo Anticancer Drug Screen. Data for tumor model L1210 Leukemia (intraperitoneal) in B6D2F1 (BDF1) mice
Conditions: endpoint: mean survival time, higher = longer survival
Summary of the method: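 Transplanted-tumor mice were given test agent; controls received vehicle only. Survival readings from the two groups were divided (treated over control).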

[1] = dose: 100.0 mg/kg/injection, schedule: Q01DX009 (ip), vehicle: Klucel (hydroxypropylcellulose) (HPC)
[2] = dose: 100.0 mg/kg/injection, schedule: Q04DX003 (ip), vehicle: Klucel (hydroxypropylcellulose) (HPC)
[3] = dose: 200.0 mg/kg/injection, schedule: Q04DX003 (ip), vehicle: Klucel (hydroxypropylcellulose) (HPC)
[4] = dose: 100.0 mg/kg/injection, schedule: Q01DX009 (ip), vehicle: saline with Tween-80
[5] = dose: 200.0 mg/kg/injection, schedule: Q01DX009 (ip), vehicle: saline with Tween-80
[6] = dose: 400.0 mg/kg/injection, schedule: Q04DX003 (ip), vehicle: Klucel (hydroxypropylcellulose) (HPC)
[7] = dose: 100.0 mg/kg/injection, schedule: Q01DX001 (ip), vehicle: Klucel (hydroxypropylcellulose) (HPC)
[8] = dose: 200.0 mg/kg/injection, schedule: Q01DX001 (ip), vehicle: Klucel (hydroxypropylcellulose) (HPC)
[9] = dose: 400.0 mg/kg/injection, schedule: Q01DX009 (ip), vehicle: saline with Tween-80
[10] = dose: 100.0 mg/kg/injection, schedule: Q04DX002 (ip), vehicle: saline with Tween-80
[11] = dose: 100.0 mg/kg/injection, schedule: Q04DX003 (ip), vehicle: saline with Tween-80
[12] = dose: 200.0 mg/kg/injection, schedule: Q04DX002 (ip), vehicle: saline with Tween-80
[13] = dose: 200.0 mg/kg/injection, schedule: Q04DX003 (ip), vehicle: saline with Tween-80
[14] = dose: 400.0 mg/kg/injection, schedule: Q04DX002 (ip), vehicle: saline with Tween-80
[15] = dose: 400.0 mg/kg/injection, schedule: Q04DX003 (ip), vehicle: saline with Tween-80
[16] = dose: 400.0 mg/kg/injection, schedule: Q01DX001 (ip), vehicle: Klucel (hydroxypropylcellulose) (HPC)
[17] = dose: 100.0 mg/kg/injection, schedule: Q01DX001 (ip), vehicle: carboxymethylcellulose (CMC)
[18] = dose: 200.0 mg/kg/injection, schedule: Q01DX001 (ip), vehicle: carboxymethylcellulose (CMC)
[19] = dose: 400.0 mg/kg/injection, schedule: Q01DX001 (ip), vehicle: carboxymethylcellulose (CMC)
[20] = dose: 100.0 mg/kg/injection, schedule: Q01DX001 (ip), vehicle: saline
[21] = dose: 200.0 mg/kg/injection, schedule: Q01DX001 (ip), vehicle: saline
[22] = dose: 400.0 mg/kg/injection, schedule: Q01DX001 (ip), vehicle: saline
[23] = dose: 200.0 mg/kg/injection, schedule: Q01DX009 (ip), vehicle: Klucel (hydroxypropylcellulose) (HPC)

Measured: T/C

COc1ccc2c3c(ccc2c1)C(=O)/C(=C\O)CC3
inactive: dose: 25.0 mg/kg/injection, schedule: Q01DX009 (ip), vehicle: Klucel (hydroxypropylcellulose) (HPC) 92 % of control | dose: 25.0 mg/kg/injection, schedule: Q04DX003 (ip), vehicle: Klucel (hydroxypropylcellulose) (HPC) 100 % of control | dose: 50.0 mg/kg/injection, schedule: Q01DX009 (ip), vehicle: Klucel (hydroxypropylcellulose) (HPC) 108 % of control | dose: 50.0 mg/kg/injection, schedule: Q04DX003 (ip), vehicle: Klucel (hydroxypropylcellulose) (HPC) 101 % of control | [1] 88 % of control | [2] 100 % of control and 103 % of control | [3] 103 % of control

COc1cc2ccccc2cc1C(=O)NN
inactive: dose: 75.0 mg/kg/injection, schedule: Q04DX003 (ip), vehicle: Klucel (hydroxypropylcellulose) (HPC) 94 % of control | dose: 150.0 mg/kg/injection, schedule: Q04DX003 (ip), vehicle: Klucel (hydroxypropylcellulose) (HPC) 102 % of control | dose: 300.0 mg/kg/injection, schedule: Q04DX003 (ip), vehicle: Klucel (hydroxypropylcellulose) (HPC) 97 % of control

CCCN(CCC)C(=O)OCC
inactive: [4] 97 % of control | [5] 100 % of control

CC(=O)N1CCN(C(C)=O)c2ccccc21
inactive: [2] 106 % of control | [3] 103 % of control | [6] 106 % of control

O=c1c(N=Nc2ccc(Br)cc2)c(O)n(-c2ccc(I)cc2)c(=S)n1-c1ccccc1
inactive: dose: 50.0 mg/kg/injection, schedule: Q01DX001 (ip), vehicle: Klucel (hydroxypropylcellulose) (HPC) 97 % of control | [7] 108 % of control | [8] 121 % of control

COC(=O)c1cc(-c2ccccc2)[nH]c1-c1ccc2ccccc2n1
inactive: dose: 100.0 mg/kg/injection, schedule: Q01DX001 (ip), vehicle: steriod suspending solution 100 % of control | dose: 200.0 mg/kg/injection, schedule: Q01DX001 (ip), vehicle: steriod suspending solution 100 % of control | dose: 400.0 mg/kg/injection, schedule: Q01DX001 (ip), vehicle: steriod suspending solution 94 % of control

O=C(O)c1cccc([N+](=O)[O-])c1I
inactive: [4] 100 % of control | [5] 101 % of control | [9] 97 % of control

c1ccc2c(CC3=NCCN3)cccc2c1
inactive: dose: 12.5 mg/kg/injection, schedule: Q01DX009 (ip), vehicle: saline with Tween-80 96 % of control | dose: 25.0 mg/kg/injection, schedule: Q01DX009 (ip), vehicle: saline with Tween-80 103 % of control

Cc1cc(=O)n(/C=C/C(=O)O)c2ccccc12
inactive: [2] 97 % of control | [3] 112 % of control | [6] 94 % of control

CCCCCCCCCCCC(=O)NC(=S)Nc1ccc(C)c(C)c1
inactive: dose: 50.0 mg/kg/injection, schedule: Q01DX001 (ip), vehicle: saline with Tween-80 86 % of control | dose: 100.0 mg/kg/injection, schedule: Q01DX001 (ip), vehicle: saline with Tween-80 91 % of control | [4] 90 % of control and 91 % of control | [10] 103 % of control and 91 % of control | [11] 93 % of control | [5] 103 % of control and 105 % of control | [12] 94 % of control and 88 % of control | [13] 90 % of control | [14] 94 % of control and 91 % of control | [15] 88 % of control

CCC(=O)Nc1ccc(Cl)c(Cl)c1
inactive: [11] 95 % of control | [13] 93 % of control | [15] 92 % of control

CCOC(=O)n1ccc2nc3ccccc3cc21
inactive: [7] 100 % of control | [8] 105 % of control | [16] 90 % of control

O=NN(CC(=O)O)C(c1ccccc1)(c1ccccc1)c1ccccc1Cl
inactive: [2] 95 % of control | [3] 93 % of control

N#CC1(c2ccccc2)CCCCC1
inactive: [17] 96 % of control | [18] 89 % of control | [19] 94 % of control

CC(=O)OCC1OC(N2C(=O)/C(=C/c3cccs3)SC2=S)C(OC(C)=O)C(OC(C)=O)C1OC(C)=O (stereo unspecified)
inactive: dose: 25.0 mg/kg/injection, schedule: Q01DX005 (ip), vehicle: other 96 % of control | dose: 50.0 mg/kg/injection, schedule: Q01DX005 (ip), vehicle: other 100 % of control | dose: 100.0 mg/kg/injection, schedule: Q01DX005 (ip), vehicle: other 97 % of control | dose: 200.0 mg/kg/injection, schedule: Q01DX005 (ip), vehicle: other 88 % of control

S=c1cc(-c2ccco2)ss1
inactive: [4] 93 % of control | [11] 90 % of control | [5] 91 % of control | [13] 95 % of control | [9] 90 % of control | [15] 96 % of control

CCOC(=O)N1C2CCC(C2)N1C(=O)OCC
inactive: [20] 103 % of control | [21] 100 % of control | [22] 103 % of control

COC(=O)c1ccccc1OC(=O)Nc1ccc(SC)cc1
inactive: dose: 50.0 mg/kg/injection, schedule: Q04DX002 (ip), vehicle: saline with Tween-80 96 % of control and 91 % of control | [4] 96 % of control | [10] 96 % of control and 104 % of control and 86 % of control | [11] 100 % of control | [5] 94 % of control and 89 % of control | [12] 95 % of control and 104 % of control | [13] 98 % of control | [9] 102 % of control and 115 % of control | [14] 93 % of control and 105 % of control and 107 % of control | [15] 97 % of control

CC(=O)NC(=O)NC(=O)CC#N
inactive: [7] 90 % of control | [8] 88 % of control | [16] 93 % of control

C/C(=C\c1ccc([N+](=O)[O-])cc1)C(=O)Nc1ccc(S(=O)(=O)F)cc1
inactive: [4] 95 % of control | [5] 93 % of control | [9] 98 % of control

ONc1ncnc2nc[nH]c12
inactive: dose: 7.5 mg/kg/injection, schedule: Q01DX009 (ip), vehicle: Klucel (hydroxypropylcellulose) (HPC) 121 % of control | dose: 15.0 mg/kg/injection, schedule: Q01DX009 (ip), vehicle: Klucel (hydroxypropylcellulose) (HPC) 119 % of control | dose: 30.0 mg/kg/injection, schedule: Q01DX009 (ip), vehicle: Klucel (hydroxypropylcellulose) (HPC) 117 % of control | dose: 50.0 mg/kg/injection, schedule: Q01DX009 (ip), vehicle: saline 114 % of control | dose: 60.0 mg/kg/injection, schedule: Q01DX009 (ip), vehicle: Klucel (hydroxypropylcellulose) (HPC) 121 % of control | [20] 110 % of control | [21] 112 % of control | dose: 200.0 mg/kg/injection, schedule: Q01DX009 (ip), vehicle: saline 114 % of control | [22] 114 % of control

c1ccc(CSCCSCc2ccccc2)cc1
inactive: dose: 87.5 mg/kg/injection, schedule: Q01DX009 (ip), vehicle: other 95 % of control | dose: 175.0 mg/kg/injection, schedule: Q01DX009 (ip), vehicle: other 101 % of control | dose: 350.0 mg/kg/injection, schedule: Q01DX009 (ip), vehicle: other 104 % of control

CCOC(=O)Nc1cccc(O)c1
inactive: [4] 91 % of control | [5] 103 % of control | [9] 92 % of control

Cc1cc(O)c(C)c(C(=O)O)c1
inactive: [17] 98 % of control | [18] 106 % of control | [19] 98 % of control

CC(NC(=O)NCCCl)c1ccccc1 (stereo unspecified)
inactive: dose: 25.0 mg/kg/injection, schedule: Q04DX003 (ip), vehicle: saline with Tween-80 100 % of control | dose: 50.0 mg/kg/injection, schedule: Q04DX003 (ip), vehicle: saline with Tween-80 90 % of control | [11] 100 % of control and 90 % of control and 94 % of control | [13] 102 % of control

O=C(O)COc1cc(F)c(Cl)cc1Cl
inactive: [1] 100 % of control | [23] 90 % of control

Cc1cc([N+](=O)[O-])ccc1NC(=O)c1c(Cl)c(Cl)c(C(=O)Nc2ccc([N+](=O)[O-])cc2C)c(Cl)c1Cl
inactive: [1] 101 % of control | [23] 94 % of control | dose: 400.0 mg/kg/injection, schedule: Q01DX009 (ip), vehicle: Klucel (hydroxypropylcellulose) (HPC) 103 % of control

Source: PubChem BioAssay AID248 (DTP/NCI, 2004)
